From patent US11851387B2, “Para-phenylenediamine derivative, 1,4-cyclohexyldiamine derivative, and fabricating method for 1,4-diamine cyclic compound derivative” (Yuanhan Materials Inc., priority 2021, dated 2023)

Test: Solubility in solvent commonly used in the synthesis of polyimide (NMP, DMAc)
Assay type: physicochemical
From the text: In the following descriptions, features and effects of the present disclosure will be described more specifically with reference to some Embodiments and some Comparative Examples. It is noted that without exceeding the scope of the present disclosure, the materials used, their amount and ratio, processing details, processing flow, etc. can be appropriately alternated. Therefore, the present disclosure should not be interpreted restrictively by the Embodiments provided below. Specifically, each Comparative Example and each Embodiment are thoroughly mixed with solvent commonly used in the synthesis of polyimide (e.g., N-methylpyrrolidone (NMP) and dimethylacetamide (DMAc)), and the solubility of each Comparative Example and each Embodiment in the solvent is measured, so as to verify the efficacy of the present disclosure. The detailed description and the measurement results of the solubility of each Comparative Example and each Embodiment are shown in Table 1.

Solubility (g/100 g solvent) (solvent DMAc, dissolution temperature 70° C.)	Compound	Solubility (g/100 g solvent) (solvent NMP, dissolution temperature 50° C.)
–	Nc1ccc(N)cc1 [Comparative Example 1, para-phenylenediamine]	4.1
5.7	NC1CCC(N)CC1 (centres unmarked) [Comparative Example 2, 1,4-cyclohexanediamine]	–
